Test results from patent US7981997B2, “Growth factor which acts through ErbB-4 RTK” (Yeda Research And Development Co., priority 2000, dated 2011).

Experiments:
[1] = test system: D12 cells (32D co-expressing ErbB-1 and ErbB-2); assay: Long-term cell survival assay in the absence of IL-3 (MTT); assay type: cell-based; settings: ligand 100 ng/ml, FIG. 3B
Protocol: FIG. 3b show survival effect of NRG-4 on ErbB-expressing derivatives of 32D cells. The indicated derivatives of 32D cells were incubated for various time intervals in the absence of IL-3. […] For control, cells were incubated with medium conditioned by IL-3-producing cells (open triangles), or with no factor (open circles). The extent of cell proliferation was determined daily by using the calorimetric MTT assay. The data presented are the mean±S.D. of 4 determinations. Note that co-expression of ErbB-1 and ErbB-2 (D12 cells) enabled cell survival in the absence of IL-3. The experiment was repeated twice with similar results.
The establishment of a series of interleukin 3 (IL-3)-dependent 32D myeloid cells expressing all combinations of ErbB proteins has been described (Alimandi et al., 1997; Pinkas-Kramarski et al., 1996; Shelly et al., 1998). Cells were maintained in RPMI medium with 10% fetal bovine serum (FBS) and dilute IL3-containing conditioned medium. […] Cell survival was determined 24 hours later, or after the indicated time intervals, by MTT assay, as previously described (Mosman, 1983). MTT (0.05 mg/ml) was incubated with the analyzed cells for 2 hours at 37 C. Living cells can transform the tetrazolium ring into dark blue formazan crystals, that can be quantified by reading the optical density at 540-630 nm after lysis of the cells with acidic isopropanol. […]

[2] = test system: D1 cells (32D expressing ErbB-1); assay: 32D cell proliferation, 24-hour dose-response MTT assay; assay type: cell-based; settings: 24-hour dose-response, without IL-3
Protocol: The indicated derivative lines of 32D cells were tested for cell proliferation using the [3-(4,5-dimethylthiazol-2-yl)-2,5-diphenyl]tetrazolium bromide (MTT) assay. […] The MT assay was performed 24 hours later. Results are presented as percent induction over the control untreated cells, and are the mean±S.D. of 4 determinations. Each experiment was repeated at least twice with similar findings.
The establishment of a series of interleukin 3 (IL-3)-dependent 32D myeloid cells expressing all combinations of ErbB proteins has been described (Alimandi et al., 1997; Pinkas-Kramarski et al., 1996; Shelly et al., 1998). Cells were maintained in RPMI medium with 10% fetal bovine serum (FBS) and dilute IL3-containing conditioned medium. Prior to proliferation assays, cells were washed three times in RPMI/FBS and plated (5×10^5 cells/ml; 0.1 ml/well) into 96-well flat-bottomed plates with the indicated liconcentrations or with IL-3 (1:1000 dilution of conditioned medium). Cell survival was determined 24 hours later, or after the indicated time intervals, by MTT assay, as previously described (Mosman, 1983). MTT (0.05 mg/ml) was incubated with the analyzed cells for 2 hours at 37 C. Living cells can transform the tetrazolium ring into dark blue formazan crystals, that can be quantified by reading the optical density at 540-630 nm after lysis of the cells with acidic isopropanol. […]

EGF: EGF (human, recombinant) purchased from Boehringer Mannheim (NSDSECPLSHDGYCLHDGVCMYIEALDKYACNCVVGYIGERCQYRDLKWWELR) [reference compound]
response of D12 cells (high basal proliferation activity) [1]: still responded
mitogenic response of D1 cells [2]: retained
